In patent US12263198B1, “Compositions and methods of improving ruminant performance” (Ralco Nutrition, Inc., priority 2021, dated 2025):
Marks after values point to notes of the source that are not given here.

Tested on: rumen fluid
Assay: ANKOM artificial rumen system, dry matter digestibility of hay
Type: cell-based, steers
Conditions: 24 hours
Protocol: This study was conducted to evaluate the feed additive composition in an ANKOM artificial rumen system to compare digestibility of a feed additive of a cobalt lactate/yeast blend, relative to a feed additive of only cobalt lactate and a feed additive of only yeast. In each run, two cannulated steers were used to collect rumen fluid from the two steers at the Ralco Beef Research Farm in Marshall, MN. The rumen fluid was mixed with a buffer solution along with a different feed additive composition in each of three jars and a fourth jar having a control with no treatment. Eight runs were performed at differing amounts of cobalt lactate, yeast, and blends of cobalt lactate and yeast, as shown in each of the tables below. The cobalt lactate used in Runs 1-8 was Microbial Catalyst® from Ralco. The yeast used in Runs 1-8 was Emprove MX from Emmert.
Dacron bags with hay (Barley straw, DM 94.2, CP 5.4, ADF 54.15, NDF 75.6, Neg/cwt 17.7 and Nem/cwt 42.5 respectively) samples were then added to each jar, the jar was purged with CO2 and incubated for 24 hours at 39.5 degrees C. At the end of the 24 hours, the bags were removed, washed with clear tap water and run through the ANKOM fiber analyzer. At that point, the bags were dried and re-weighed, and the weight entered into formulas to give a dry matter digestibility value.
In this study a similar analysis was performed as in Example 5. In this example, Formulation A (used in Runs 6-8) was compared to Product 1 (Diamond V XPC®) and Product 2 (Amaferm® from BioZyme). The protocol used in this example is the same as that provided above for Example 5.

SMILES: CC(O)C(=O)[O-].CC(O)C(=O)[O-].[Co+2] (centres unmarked) [cobalt lactate]
- DMD (Run 1, 3.0 g): 54.37^b
- DMD (Run 2, 6.0 g): 57.04^b
- DMD (Run 3, 3.0 g): 61.87^b
- DMD (Run 4, 3.0 g): 61.83^c
- DMD (Run 5, 3.0 g): 64.59^c
- DMD (Run 6, 3.0 g): 62.41^c
- DMD (Run 7, 3.0 g): 62.17^b
- DMD (Run 8, 3.0 g): 66.71^c
